Experimental data reported in US11457628B2, “Substituted pyrimidine compound and preparation method and use thereof” (SHENYANG SINOCHEM AGROCHEMICALS R&D CO., LTD., priority 2017, dated 2022).

Legend:
rice blast = assay: microbe, parasite or virus in culture; format: cell-based; conditions: Pyricularia oryzae, 24 h, read-out: inhibition activity for rice blast
cucumber downy mildew = assay: in vivo protective activity, pot determination, cucumber downy mildew
wheat powdery mildew = assay: in vivo protective activity, pot determination, wheat powdery mildew
corn rust = assay: in vivo protective activity, pot determination, corn rust
cucumber anthrax = format: in vivo; conditions: dose 400 ppm
green peach aphid = assay: activity against the green peach aphid, airbrush spray method; format: in vivo; conditions: 100 mg/L, after 48 hours
Tetranychus cinnabarinus = assay: activity against Tetranychus cinnabarinus, airbrush spray method; conditions: 600 mg/L, after 72 hours

## Cc1nc(Cl)cc(N(C)Cc2c(C)nn(-c3ccccc3)c2C)n1 [CK5]
Rice blast
  inhibition at 2.8 ppm: 0%
  inhibition at 8.3 ppm: 0%
  inhibition at 25 ppm: 0%
Cucumber downy mildew; 400 mg/L
  Protective Activity (%), cucumber downy mildew: 85%
Wheat powdery mildew; 400 mg/L
  Protective Activity (%), wheat powdery mildew: 0%
Corn rust; 6.25 mg/L
  Protective Activity (%), corn rust: 20%
Corn rust; 25 mg/L
  Protective Activity (%), corn rust: 60%
Corn rust; 100 mg/L
  Protective Activity (%), corn rust: 70%
Corn rust; 400 mg/L
  Protective Activity (%), corn rust: 98%
Cucumber anthrax
  protective effect for the melon anthrax / cucumber anthrax: 0%
Green peach aphid
  Lethality to Green Peach Aphid (%): 22%
Tetranychus cinnabarinus
  Lethality to Tetranychus Cinnabarinus (%): 58%

## Cc1cc(N(C)Cc2cnn(-c3ccccc3)c2)nc(C(C)C)n1 [CK4]
Rice blast
  inhibition at 2.8 ppm: 0%
  inhibition at 8.3 ppm: 0%
  inhibition at 25 ppm: 0%
Cucumber downy mildew; 50 mg/L
  Protective Activity (%), cucumber downy mildew: 0%
Cucumber downy mildew; 100 mg/L
  Protective Activity (%), cucumber downy mildew: 40%
Cucumber downy mildew; 400 mg/L
  Protective Activity (%), cucumber downy mildew: 100%
Wheat powdery mildew; 400 mg/L
  Protective Activity (%), wheat powdery mildew: 0%
Corn rust; 6.25 mg/L
  Protective Activity (%), corn rust: 0%
Corn rust; 25 mg/L
  Protective Activity (%), corn rust: 0%
Corn rust; 100 mg/L
  Protective Activity (%), corn rust: 0%
Corn rust; 400 mg/L
  Protective Activity (%), corn rust: 40%
Cucumber anthrax
  protective effect for the melon anthrax / cucumber anthrax: 0%
Green peach aphid
  Lethality to Green Peach Aphid (%): 0%
Tetranychus cinnabarinus
  Lethality to Tetranychus Cinnabarinus (%): 59%

## Cc1c(OCCCNc2ncnc(C(F)F)c2Cl)nn(C)c1-c1ccccc1 [Compound 12-3-1]
Rice blast
  inhibition at 2.8 ppm: > 80%
  inhibition at 8.3 ppm: > 80%
  inhibition at 25 ppm: > 80%

## Cc1c(OCCNc2ncnc(C(F)F)c2Cl)nn(C)c1-c1ccccc1 [Compound 12-1-1]
Cucumber anthrax
  protective effect for the melon anthrax / cucumber anthrax: 100%

## Cc1c(OCC(C)Nc2ncnc3scc(Cl)c23)nn(C)c1-c1ccccc1 (centres unmarked) [Compound 21-4-1]
Cucumber anthrax
  protective effect for the melon anthrax / cucumber anthrax: 100%

## Cc1c(OCCNc2ncnc3scc(Cl)c23)nn(C)c1-c1ccc(F)cc1 [Compound 21-1-4]
Cucumber anthrax
  protective effect for the melon anthrax / cucumber anthrax: 100%

## CCc1ncnc(NCc2cnn(-c3ccccc3)c2C(F)(F)F)c1Cl [CK2]
Rice blast
  inhibition at 2.8 ppm: 0%
  inhibition at 8.3 ppm: 0%
  inhibition at 25 ppm: 0%
Cucumber downy mildew; 25 mg/L
  Protective Activity (%), cucumber downy mildew: 0%
Cucumber downy mildew; 50 mg/L
  Protective Activity (%), cucumber downy mildew: 20%
Cucumber downy mildew; 100 mg/L
  Protective Activity (%), cucumber downy mildew: 75%
Cucumber downy mildew; 400 mg/L
  Protective Activity (%), cucumber downy mildew: 100%
Wheat powdery mildew; 6.25 mg/L
  Protective Activity (%), wheat powdery mildew: 0%
Wheat powdery mildew; 25 mg/L
  Protective Activity (%), wheat powdery mildew: 20%
Wheat powdery mildew; 100 mg/L
  Protective Activity (%), wheat powdery mildew: 50%
Wheat powdery mildew; 400 mg/L
  Protective Activity (%), wheat powdery mildew: 100%

## Cc1ncnc(NCCOc2cc(-c3ccc(Cl)cc3Cl)n(C)n2)c1Cl [Compound 10-21]
Cucumber anthrax
  protective effect for the melon anthrax / cucumber anthrax: 100%

## Cn1nc(OCCNc2ncnc3ccccc23)cc1-c1ccc(Br)cc1 [Compound 19-34]
Rice blast
  inhibition at 25 ppm: > 80%

## CCc1ncnc(NCCOc2nn(C)c(-c3ccc(Cl)cc3)c2C)c1Cl [Compound 11-1-19]
Cucumber anthrax
  protective effect for the melon anthrax / cucumber anthrax: 100%

## CCc1ncnc(NCc2cnn(-c3ccccc3)c2C)c1Cl [CK1]
Rice blast
  inhibition at 2.8 ppm: 0%
  inhibition at 8.3 ppm: 0%
  inhibition at 25 ppm: 0%
Cucumber downy mildew; 25 mg/L
  Protective Activity (%), cucumber downy mildew: 0%
Cucumber downy mildew; 50 mg/L
  Protective Activity (%), cucumber downy mildew: 20%
Cucumber downy mildew; 100 mg/L
  Protective Activity (%), cucumber downy mildew: 95%
Cucumber downy mildew; 400 mg/L
  Protective Activity (%), cucumber downy mildew: 100%
Green peach aphid
  Lethality to Green Peach Aphid (%): 0%

## Cn1nc(OCCNc2ncnc3scc(Cl)c23)cc1-c1ccc(Cl)cc1Cl [Compound 21-21]
Cucumber anthrax
  protective effect for the melon anthrax / cucumber anthrax: 100%

## Cc1c(OCC(C)Nc2ncnc3ccccc23)nn(C)c1-c1ccccc1 (centres unmarked) [Compound 19-4-1]
Cucumber anthrax
  protective effect for the melon anthrax / cucumber anthrax: 100%

## Cc1c(OCCNc2ncnc3ccccc23)nn(C)c1-c1ccc(F)cc1 [Compound 19-1-4]
Cucumber anthrax
  protective effect for the melon anthrax / cucumber anthrax: 100%

## Cc1nc(C)c(C)c(N(C)Cc2cnn(-c3ccccc3)c2)n1 [CK3]
Rice blast
  inhibition at 2.8 ppm: 0%
  inhibition at 8.3 ppm: 0%
  inhibition at 25 ppm: 0%
Cucumber downy mildew; 50 mg/L
  Protective Activity (%), cucumber downy mildew: 0%
Cucumber downy mildew; 100 mg/L
  Protective Activity (%), cucumber downy mildew: 30%
Cucumber downy mildew; 400 mg/L
  Protective Activity (%), cucumber downy mildew: 100%
Wheat powdery mildew; 400 mg/L
  Protective Activity (%), wheat powdery mildew: 0%
Corn rust; 6.25 mg/L
  Protective Activity (%), corn rust: 0%
Corn rust; 25 mg/L
  Protective Activity (%), corn rust: 0%
Corn rust; 100 mg/L
  Protective Activity (%), corn rust: 20%
Corn rust; 400 mg/L
  Protective Activity (%), corn rust: 60%
Cucumber anthrax
  protective effect for the melon anthrax / cucumber anthrax: 0%
Green peach aphid
  Lethality to Green Peach Aphid (%): 30%
Tetranychus cinnabarinus
  Lethality to Tetranychus Cinnabarinus (%): 56%

## Cc1c(OCCNc2ncnc(C(F)F)c2Cl)nn(C)c1-c1ccc(Cl)cc1 [Compound 12-1-19]
Wheat powdery mildew; dose 6.25 ppm
  protective effect for control of wheat powdery mildew: more than 80%
Cucumber anthrax
  protective effect for the melon anthrax / cucumber anthrax: 100%

## CCc1ncnc(OCCOc2nn(C)c(-c3ccccc3)c2C)c1Cl [Compound 26-1-1]
Cucumber anthrax
  protective effect for the melon anthrax / cucumber anthrax: 100%
